Molecules are shown by their SMILES. Read-outs that look alike come from different tables or passages of the source.

In the assay the target is T1, BRD9 (Homo sapiens, UniProt Q9H8M2).
T1 sequence (Q9H8M2 1-597): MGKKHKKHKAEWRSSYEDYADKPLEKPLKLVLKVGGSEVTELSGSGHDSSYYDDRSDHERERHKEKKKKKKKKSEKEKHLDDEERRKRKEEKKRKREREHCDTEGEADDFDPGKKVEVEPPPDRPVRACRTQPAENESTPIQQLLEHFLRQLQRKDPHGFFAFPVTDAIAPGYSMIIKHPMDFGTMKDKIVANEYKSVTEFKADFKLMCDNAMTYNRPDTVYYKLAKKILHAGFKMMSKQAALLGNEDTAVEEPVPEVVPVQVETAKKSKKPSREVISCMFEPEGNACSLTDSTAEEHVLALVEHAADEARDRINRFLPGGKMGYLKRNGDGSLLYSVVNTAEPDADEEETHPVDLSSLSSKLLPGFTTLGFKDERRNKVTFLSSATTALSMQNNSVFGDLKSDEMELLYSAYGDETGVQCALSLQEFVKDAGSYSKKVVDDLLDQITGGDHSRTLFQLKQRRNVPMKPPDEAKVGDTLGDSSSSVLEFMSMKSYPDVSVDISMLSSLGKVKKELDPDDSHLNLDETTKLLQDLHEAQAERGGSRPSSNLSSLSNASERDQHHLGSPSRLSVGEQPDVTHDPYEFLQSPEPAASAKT
Description: Degradation of BRD9 (IF), immunofluorescence in MV4-11 cells, 24 hours (Assay Protocol 2). The conditions noted are these: BRD9 degradation. In kind it is cell-based. More on the design: A suspension of MV4-11 cells (ATCC CRL-9591) was prepared; host or cells: MV4-11. The method in brief: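 % BRD9 remaining, scaled between DMSO (high) and 100 nM CFT-8634 (low) control wells, derives from mean Alexa 647 contrast in central nuclei by high-content imaging. MV4-11 cells had 24 h compound exposure at 37° C. before PFA fixation, Triton permeabilisation and anti-BRD9 E4Q3F immunostaining.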

Where [1] appears, read: Assay protocol 2, read-out: DC50.
[2] abbreviates: MV4-11, Assay protocol 2, read-out: Dmax.

In general, DC50 refers to the concentration at which degradation of the target reaches its halfway point. By Dmax is commonly meant the largest share of the target that was removed. `COc1cc(-c2cn(C)c(=O)c(C)c2C)cc(OC)c1CN1CCN(Cc2ccc3c(c2)C(C)N(C(=O)/C(C#N)=C/C2(C)CCC(F)(F)CC2)CC3)C2(CC2)C1` (single isomer, unassigned) [Compound C38, (E/Z)-3-(4,4-difluoro-1-methylcyclohexyl)-2-(7-((7-(2,6-dimethoxy-4-(1,4,5-trimethyl-6-oxo-1,6-dihydropyridin-3-yl)benzyl)-4,7-diazaspiro[2.5]octan-4-yl)methyl)-1-methyl-1,2,3,4-tetrahydroisoquinoline-2-carbonyl)acrylonitrile]: the DC50 under setting [1] lay in the range of 1.25 to 10 nM. For the same compound, the Dmax under setting [2] lay in the range of 70 to 75%.

Consider `COc1cc(-c2cn(C)c(=O)c(C)c2C)cc(OC)c1CN1CCN(Cc2cccc3c2CCN(C(=O)/C(C#N)=C/C(C)(C)C)C3C(C)C)[C@@H](C)C1` (mixture of isomers) [Compound C14, (E/Z)-2-(5-(((S)-4-(2,6-dimethoxy-4-(1,4,5-trimethyl-6-oxo-1,6-dihydropyridin-3-yl)benzyl)-2-methylpiperazin-1-yl)methyl)-1-isopropyl-1,2,3,4-tetrahydroisoquinoline-2-carbonyl)-4,4-dimethylpent-2-enenitrile], for which the DC50 under setting [1] lay within 25 to 1000 nM. Besides, the Dmax under setting [2] was above 75%.

For `COc1cc(-c2cn(C)c(=O)c(C)c2C)cc(OC)c1CN1CCC(N(C)c2ccc3c(c2)[C@@H](C)N(C(=O)/C(C#N)=C/C(C)(C)C)CC3)CC1` (single isomer, unassigned) [Compound C65], under setting [1], the DC50 was 1.25 to 10 nM. Under setting [2], the Dmax is 40 to 70%.

With `COc1cc(-c2cn(C)c(=O)c(C)c2C)cc(OC)c1CN1CCN(Cc2cccc3c2CCN(C(=O)/C(C#N)=C/C(C)(C)CF)C3C(C)C)C2(CC2)C1` (mixture of isomers) [Compound C24, (E/Z)-2-(5-((7-(2,6-dimethoxy-4-(1,4,5-trimethyl-6-oxo-1,6-dihydropyridin-3-yl)benzyl)-4,7-diazaspiro[2.5]octan-4-yl)methyl)-1-isopropyl-1,2,3,4-tetrahydroisoquinoline-2-carbonyl)-5-fluoro-4,4-dimethylpent-2-enenitrile], under setting [1], the 50% degradation concentration (DC50) is below 1.25 nM. Under setting [2], the Dmax was above 75%.

As for `COc1cc(-c2cn(C)c(=O)c(C)c2C)cc(OC)c1C(=O)N1CCCN(Cc2cccc3c2CCN(C(=O)/C(C#N)=C/C(C)(C)C)C3C)CC1` (mixture of isomers) [Compound B65, (E/Z)-2-(5-((4-(2,6-dimethoxy-4-(1,4,5-trimethyl-6-oxo-1,6-dihydropyridin-3-yl)benzoyl)-1,4-diazepan-1-yl)methyl)-1-methyl-1,2,3,4-tetrahydroisoquinoline-2-carbonyl)-4,4-dimethylpent-2-enenitrile], under setting [1], the DC50 is 1.25 to 10 nM. For the same compound, the Dmax under setting [2] was above 75%.

For the compound `COc1cc(-c2cn(C)c(=O)c(C)c2C)cc(OC)c1CN1CCN(Cc2cccc3c2CCN(C(=O)/C(C#N)=C/C(C)(C)C)C3C)C(C(C)C)C1` (mixture of isomers) [Compound B136, (E/Z)-2-(5-((4-(2,6-dimethoxy-4-(1,4,5-trimethyl-6-oxo-1,6-dihydropyridin-3-yl)benzyl)-2-isopropylpiperazin-1-yl)methyl)-1-methyl-1,2,3,4-tetrahydroisoquinoline-2-carbonyl)-4,4-dimethylpent-2-enenitrile], the DC50 under setting [1] lay in the range of 1.25 to 10 nM. For the same compound, the Dmax under setting [2] is above 75%.

Consider `COc1cc(-c2cn(C)c(=O)c(C)c2C)cc(OC)c1CN1CCN(Cc2ccc3c(c2)[C@@H](C(C)C)N(C(=O)/C(C#N)=C/C(C)(C)C)CC3)C2(CC2)C1` (single isomer, unassigned) [Compound C88, (E/Z)-2-(7-((7-(2,6-dimethoxy-4-(1,4,5-trimethyl-6-oxo-1,6-dihydropyridin-3-yl)benzyl)-4,7-diazaspiro[2.5]octan-4-yl)methyl)-1-isopropyl-1,2,3,4-tetrahydroisoquinoline-2-carbonyl)-4,4-dimethylpent-2-enenitrile], for which the DC50 under setting [1] is 25 to 1000 nM. Moreover, under setting [2], the Dmax fell in the range of 40 to 70%.

For the compound `COc1cc(-c2cn(C)c(=O)c(C)c2C)cc(OC)c1CN1CCN(Cc2cccc3c2CCN(C(=O)/C(C#N)=C/C(C)(C)C(F)F)C3C)C2(CC2)C1` (mixture of isomers) [Compound B138, (E/Z)-2-(5-((7-(2,6-dimethoxy-4-(1,4,5-trimethyl-6-oxo-1,6-dihydropyridin-3-yl)benzyl)-4,7-diazaspiro[2.5]octan-4-yl)methyl)-1-methyl-1,2,3,4-tetrahydroisoquinoline-2-carbonyl)-5,5-difluoro-4,4-dimethylpent-2-enenitrile], under setting [1], the half-maximal degradation concentration (DC50) is below 1.25 nM. The Dmax under setting [2] was above 75%.

For `COc1cc(-c2cn(C)c(=O)c(C)c2C)cc(OC)c1CN1C[C@H](C)N(Cc2cccc3c2CCN(C(=O)/C(C#N)=C/C(C)(C)C)C3C)[C@@H](C)C1` (mixture of isomers) [Compound B100, (E/Z)-2-(5-(((2S,6S)-4-(2,6-dimethoxy-4-(1,4,5-trimethyl-6-oxo-1,6-dihydropyridin-3-yl)benzyl)-2,6-dimethylpiperazin-1-yl)methyl)-1-methyl-1,2,3,4-tetrahydroisoquinoline-2-carbonyl)-4,4-dimethylpent-2-enenitrile], the DC50 under setting [1] fell in the range of 25 to 1000 nM. Besides, the Dmax under setting [2] was in the range of 70 to 75%.

Regarding `COc1cc(-c2cn(C)c(=O)c(C)c2C)cc(OC)c1CN1CCN(Cc2ccc3c(c2)[C@H](C)N(C(=O)/C(C#N)=C/C(C)(C)CF)CC3)C2(CC2)C1` (single isomer, unassigned) [Compound B201, (E/Z)-2-(7-((7-(2,6-dimethoxy-4-(1,4,5-trimethyl-6-oxo-1,6dihydropyridin-3-yl)benzyl)-4,7-diazaspiro[2.5]octan-4-yl)methyl)-1-methyl-1,2,3,4-tetrahydroisoquinoline-2-carbonyl)-5-fluoro-4,4-dimethylpent-2-enenitrile], the DC50 under setting [1] was 25 to 1000 nM. For the same compound, the Dmax under setting [2] was in the range of 40 to 70%.

For the compound `COc1cc(-c2cn(C)c(=O)c(C)c2C)cc(OC)c1CN1CCN(Cc2ccc3c(c2)[C@@H](C)N(C(=O)/C(C#N)=C/C(C)(C)CO)CC3)C2(CC2)C1` (single isomer, unassigned) [Compound C41, (E/Z)-2-(7-((7-(2,6-dimethoxy-4-(1,4,5-trimethyl-6-oxo-1,6-dihydropyridin-3-yl)benzyl)-4,7-diazaspiro[2.5]octan-4-yl)methyl)-1-methyl-1,2,3,4-tetrahydroisoquinoline-2-carbonyl)-5-hydroxy-4,4-dimethylpent-2-enenitrile], under setting [1], the DC50 is 1.25 to 10 nM. In addition, under setting [2], the Dmax was above 75%.

Turning to `COc1cc(-c2cn(C)c(=O)c(C)c2C)cc(OC)c1CN1CCCN(Cc2cccc3c2CCN(C(=O)/C(C#N)=C/C(C)(C)CF)[C@@H]3C)CC1` (single isomer, unassigned) [Compound C19], under setting [1], the DC50 lay in the range of 1.25 to 10 nM. Moreover, the Dmax under setting [2] was above 75%.

For `COc1cc(-c2cn(C)c(=O)c(C)c2C)cc(OC)c1CN1CCC(Oc2cccc3c2CCN(C(=O)/C(C#N)=C/C(C)(C)C)C3C)C1` (stereo in doubt) [Compound B134, (E)-2-(5-(((S)-1-(2,6-dimethoxy-4-(1,4,5-trimethyl-6-oxo-1,6-dihydropyridin-3-yl)benzyl)pyrrolidin-3-yl)oxy)-1-methyl-1,2,3,4-tetrahydroisoquinoline-2-carbonyl)-4,4-dimethylpent-2-enenitrile], the DC50 under setting [1] was in the range of 25 to 1000 nM. In addition, the Dmax under setting [2] lay within 40 to 70%.

On to `COc1cc(-c2cn(C)c(=O)c(C)c2C)cc(OC)c1CN1C[C@@H](C)N(C(=O)/C(C#N)=C/C(C)(C)C)C[C@@H]1C` (mixture of isomers) [Compound B190, (E/Z)-2-((2R,5S)-4-(2,6-dimethoxy-4-(1,4,5-trimethyl-6-oxo-1,6-dihydropyridin-3-yl)benzyl)-2,6-dimethylpiperazine-1-carbonyl)-4,4-dimethylpent-2-enenitrile], for which the DC50 under setting [1] was 25 to 1000 nM. Besides, the Dmax under setting [2] lay within 40 to 70%.

Regarding `CC[C@@H]1c2cccc(CN3CCN(Cc4c(OC)cc(-c5cn(C)c(=O)c(C)c5C)cc4OC)CC34CC4)c2CCN1C(=O)/C(C#N)=C/C(C)(C)CF` (single isomer, unassigned) [Compound C93, (E/Z)-2-(5-((7-(2,6-dimethoxy-4-(1,4,5-trimethyl-6-oxo-1,6-dihydropyridin-3-yl)benzyl)-4,7-diazaspiro[2.5]octan-4-yl)methyl)-1-ethyl-1,2,3,4-tetrahydroisoquinoline-2-carbonyl)-5-fluoro-4,4-dimethylpent-2-enenitrile], the DC50 under setting [1] is below 1.25 nM. Under setting [2], the Dmax was above 75%.

Regarding `COc1cc(-c2cn(C)c(=O)c(C)c2C)cc(OC)c1C(=O)N1CCN(C(=O)/C(C#N)=C/C(C)(C)C)CC1` [BRD9s, (E/Z)-2-(4-(2,6-dimethoxy-4-(1,4,5-trimethyl-6-oxo-1,6-dihydropyridin-3-yl)benzoyl)piperazine-1-carbonyl)-4,4-dimethylpent-2-enenitrile], the Dmax (MV4-11, Table 4, determined according to Assay Protocol 2, read-out: Dmax^2) was 50 to 70%. For the same compound, the DC50 (Table 4, determined according to Assay Protocol 2, read-out: DC50^2) is below 25 nM.

(Values after patent publication US20260092061A1, “COMPOUNDS FOR TARGETED PROTEIN DEGRADATION” (Amphista Therapeutics Limited, priority 2022, published 2026).)
